From ChEMBL document CHEMBL5126582, “Discovery of (2-(pyrrolidin-1-yl)thieno[3,2-d]pyrimidin-4-yl)(3,4,5-trimethoxyphenyl)methanone as a novel potent tubulin depolymerizing and vascular disrupting agent” (Eur J Med Chem, 2022)
Active and inactive are the calls of the source. No cut-off for these calls is given here.

Legend:
HeLa [1] = test: Induction of apoptosis in human HeLa cells assessed as early apoptotic cells at 100 nM incubated for 24 hrs by annexin V FITC and propidium iodide staining based flow cytometry analysis (reference value: 0.12%); type: functional
HeLa [2] = test: Induction of apoptosis in human HeLa cells assessed as late apoptotic cells at 500 nM incubated for 48 hrs by annexin V FITC and propidium iodide staining based flow cytometry analysis (reference value: 8.87%); type: functional
HeLa [3] = test: Inhibition of cell migration in human HeLa cells at 10 to 1000 nM measured up to 24 hrs wound healing assay; type: functional, cell-based; settings: dose 10-1000 nM, DDE = dose-dependent effect
HeLa [4] = test: Induction of cell cycle arrest in human HeLa cells assessed as accumulation of cells at G2/M phase at 100 to 2000 nM incubated for 24 to 48 hrs by […] flow cytometry; type: functional; settings: dose 100-2000 nM, time 24-48 hrs, DDE = dose-dependent effect
HeLa [5] = test: Induction of apoptosis in human HeLa cells assessed as necrotic cells at 500 nM incubated for 24 hrs by annexin V FITC and propidium iodide staining based flow cytometry analysis (reference value: 1.14 %); type: functional
HL-60 = test: Antiproliferative activity against human HL-60 cells assessed as reduction in cell viability incubated for 48 hrs by MTS assay; type: functional, cell-based; settings: HL-60, 48 h
HeLa [6] = test: Induction of apoptosis in human HeLa cells assessed as late apoptotic cells at 1 uM incubated for 48 hrs by annexin V FITC and propidium iodide staining based flow cytometry analysis (reference value: 8.87%); type: functional
Tubulin = Tubulin (Sus scrofa, UniProt P02554+P02550); test: Inhibition of pig brain tubulin polymerization incubated for 19 mins by spectrophotometric method
HeLa [7] = test: Induction of apoptosis in human HeLa cells assessed as necrotic cells at 1 uM incubated for 72 hrs by annexin V FITC and propidium iodide staining based flow cytometry analysis (reference value: 2.88 %); type: functional
HeLa [8] = test: Induction of apoptosis in human HeLa cells assessed as early apoptotic cells at 750 nM incubated for 24 hrs by annexin V FITC and propidium iodide staining based flow cytometry analysis (reference value: 0.12%); type: functional
[9] = Antiproliferative activity against human A549/PTX cells assessed as reduction in cell viability measured for 48 hrs by MTS assay; type: functional, cell-based
HeLa [10] = test: Induction of apoptosis in human HeLa cells assessed as viable cells at 500 nM incubated for 72 hrs by annexin V FITC and propidium iodide staining based flow cytometry analysis (reference value: 90.1%); type: functional; settings: read-out: Activity
HeLa [11] = test: Induction of mitochondrial membrane potential alteration in human HeLa cells assessed as viable cells at 750 nM measured after 48 hrs by JC1 staining-based flow cytometry analysis (Rvb =90.9 %); type: functional; settings: read-out: Activity
HCT-116 = test: Antiproliferative activity against human HCT-116 cells assessed as reduction in cell viability incubated for 48 hrs by MTS assay; type: functional, cell-based; settings: HCT-116, 48 h
HeLa [12] = test: Induction of mitochondrial membrane potential alteration in human HeLa cells assessed as viable cells at 500 nM measured after 48 hrs by JC1 staining-based flow cytometry analysis (reference value: 90.9%); type: functional; settings: read-out: Activity
HeLa [13] = test: Induction of apoptosis in human HeLa cells assessed as necrotic cells at 750 nM incubated for 24 hrs by annexin V FITC and propidium iodide staining based flow cytometry analysis (reference value: 1.14 %); type: functional
HeLa [14] = test: Induction of apoptosis in human HeLa cells assessed as necrotic cells at 100 nM incubated for 48 hrs by annexin V FITC and propidium iodide staining based flow cytometry analysis (reference value: 1.85 %); type: functional
HeLa [15] = test: Induction of mitochondrial membrane potential alteration in human HeLa cells assessed as necrotic cells at 100 nM measured after 48 hrs by JC1 staining-based flow cytometry analysis (reference value: 0%); type: functional
HeLa [16] = test: Induction of mitochondrial membrane potential alteration in human HeLa cells assessed as early apoptotic cells at 500 nM measured after 48 hrs by JC1 staining-based flow cytometry analysis (reference value: 9.07 %); type: functional
HeLa [17] = test: Inhibition of colony formation in human HeLa cells assessed as reduction in colony formation at 1 to 250 nM incubated for 48 hrs followed by culturing in fresh compound-free medium for 10 days by crystal violet staining based assay; type: functional, cell-based; settings: dose 1-250 nM, DDE = dose-dependent effect
A549 = test: cells; settings: Homo sapiens, A549, 48 h
Description: Antiproliferative activity against human A549 cells assessed as reduction in cell viability incubated for 48 hrs by MTS assay

HeLa [18] = test: Induction of apoptosis in human HeLa cells assessed as early apoptotic cells at 750 nM incubated for 48 hrs by annexin V FITC and propidium iodide staining based flow cytometry analysis (reference value: 6.01%); type: functional
HeLa [19] = test: Induction of apoptosis in human HeLa cells assessed as late apoptotic cells at 100 nM incubated for 24 hrs by annexin V FITC and propidium iodide staining based flow cytometry analysis (reference value: 0.05%); type: functional
HeLa [20] = test: Induction of mitochondrial membrane potential alteration in human HeLa cells assessed as early apoptotic cells at 1 uM measured after 48 hrs by JC1 staining-based flow cytometry analysis (reference value: 9.07 %); type: functional
HeLa [21] = test: Induction of apoptosis in human HeLa cells assessed as late apoptotic cells at 1 uM incubated for 72 hrs by annexin V FITC and propidium iodide staining based flow cytometry analysis (reference value: 4.70%); type: functional
HeLa [22] = test: Induction of apoptosis in human HeLa cells assessed as early apoptotic cells at 100 nM incubated for 72 hrs by annexin V FITC and propidium iodide staining based flow cytometry analysis (reference value: 2.36%); type: functional
HeLa [23] = test: Inhibition of colony formation in human HeLa cells assessed as reduction in colony formation at 250 nM incubated for 24 hrs followed by culturing in fresh compound-free medium for 10 days by crystal violet staining based assay; type: functional, cell-based
HeLa [24] = test: Induction of apoptosis in human HeLa cells assessed as early apoptotic cells at 500 nM incubated for 24 hrs by annexin V FITC and propidium iodide staining based flow cytometry analysis (reference value: 0.12%); type: functional
HeLa [25] = test: Antiproliferative activity against human HeLa cells assessed as reduction in cell viability incubated for 48 hrs by MTS assay; type: functional, cell-based
HeLa [26] = test: Induction of mitochondrial membrane potential alteration in human HeLa cells assessed as necrotic cells at 500 nM measured after 48 hrs by JC1 staining-based flow cytometry analysis (reference value: 0%); type: functional
HeLa [27] = test: Induction of mitochondrial membrane potential alteration in human HeLa cells assessed as viable cells at 100 nM measured after 48 hrs by JC1 staining-based flow cytometry analysis (reference value: 90.9 %); type: functional; settings: read-out: Activity
HeLa [28] = test: Induction of mitochondrial membrane potential alteration in human HeLa cells assessed as late apoptotic cells at 500 nM measured after 48 hrs by JC1 staining-based flow cytometry analysis (reference value: 0.009%); type: functional
HeLa [29] = test: Induction of apoptosis in human HeLa cells assessed as viable cells at 750 nM incubated for 72 hrs by annexin V FITC and propidium iodide staining based flow cytometry analysis (reference value: 90.1%); type: functional; settings: read-out: Activity
HeLa [30] = test: Induction of mitochondrial membrane potential alteration in human HeLa cells assessed as early apoptotic cells at 100 nM measured after 48 hrs by JC1 staining-based flow cytometry analysis (reference value: 9.07%); type: functional

Q: For `COc1cc(C(=O)c2nc(N3CCCC3)nc3ccsc23)cc(OC)c1OC`, which Activity (HeLa [1]) is on record?
A: 2.98%

Q: And the Activity (HeLa [2])?
A: 10.8%

Q: What about the inhibition (HeLa [3]) of the same compound?
A: Dde

Q: What about the Activity (HeLa [4]) of the same compound?
A: Dde

Q: What about the Activity (HeLa [5]) of the same compound?
A: 1.74%

Q: What about the IC50 (HL-60) of the same compound?
A: 8 nM

Q: What about the Activity (HeLa [6]) of the same compound?
A: 41.2%

Q: And the IC50 (Tubulin)?
A: 1600 nM

Q: What about the Activity (HeLa [7]) of the same compound?
A: 41.9%

Q: And the Activity (HeLa [8])?
A: 8.59%

Q: And the IC50 [9]?
A: 24.4 nM

Q: And the viability at 0.5 µM (HeLa [10])?
A: 32.6%

Q: And the viability at 0.75 µM (HeLa [11])?
A: 56.7%

Q: What about the IC50 (HCT-116) of the same compound?
A: 21 nM

Q: And the viability at 0.5 µM (HeLa [12])?
A: 66.9%

Q: What about the Activity (HeLa [13]) of the same compound?
A: 3.09%

Q: What about the Activity (HeLa [14]) of the same compound?
A: 2.38%

Q: And the Activity (HeLa [15])?
A: 0.02%

Q: And the Activity (HeLa [16])?
A: 33.1%

Q: And the inhibition (HeLa [17])?
A: Dde

Q: What about the IC50 (A549) of the same compound?
A: 14 nM

Q: What about the Activity (HeLa [18]) of the same compound?
A: 7.72%

Q: And the Activity (HeLa [19])?
A: 5.04%

Q: And the Activity (HeLa [20])?
A: 55.3%

Q: What about the Activity (HeLa [21]) of the same compound?
A: 24.7%

Q: What about the Activity (HeLa [22]) of the same compound?
A: 2.65%

Q: What about the inhibition (HeLa [23]) of the same compound?
A: Active

Q: And the Activity (HeLa [24])?
A: 6.1%

Q: What about the IC50 (HeLa [25]) of the same compound?
A: 3 nM

Q: What about the Activity (HeLa [26]) of the same compound?
A: 0.01%

Q: And the viability at 0.1 µM (HeLa [27])?
A: 92.4%

Q: What about the Activity (HeLa [28]) of the same compound?
A: 0.019%

Q: What about the viability at 0.75 µM (HeLa [29]) of the same compound?
A: 27.7%

Q: What about the Activity (HeLa [30]) of the same compound?
A: 7.59%
